According to patent publication US10723699B2 (Hyundai Pharm Co., Ltd., priority 2015, dated 2020):
Like-named read-outs stand apart in the source and are kept apart here.

Target: T1, G protein-coupled receptor 119 (GPR-119) (Mesocricetus auratus, UniProt A0A1U8CD06)
T1 construct: hamster-derived β-cells containing G protein-coupled receptor 119 (GPR-119), HIT-T15 cells; host or cells: HIT-T15 (hamster pancreatic β-cells)
T1 sequence (A0A1U8CD06 1-334): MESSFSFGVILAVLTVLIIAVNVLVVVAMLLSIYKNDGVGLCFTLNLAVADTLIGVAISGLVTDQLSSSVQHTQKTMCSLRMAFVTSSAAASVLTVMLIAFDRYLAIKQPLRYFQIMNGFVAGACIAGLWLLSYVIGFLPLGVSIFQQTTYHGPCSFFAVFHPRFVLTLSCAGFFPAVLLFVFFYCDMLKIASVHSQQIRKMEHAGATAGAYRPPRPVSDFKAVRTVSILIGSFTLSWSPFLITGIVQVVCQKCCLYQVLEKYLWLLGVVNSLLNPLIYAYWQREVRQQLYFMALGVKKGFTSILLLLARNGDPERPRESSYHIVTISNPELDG
Assay: cAMP activity in HIT-T15 cells (cAMP dynamic kit, FRET)
Type: cell-based, hamster
Protocol: To check whether the cyclohexene derivatives according to the present invention activate cyclic adenosine monophosphate (cAMP), experiments were carried out, as follows.
The HIT-T15 cells were plated on a 96-well plate at 60,000 cells per well. On the next day of plating, the cells were treated with a varying concentration of each of the example compounds according to the present invention, and incubated at 37° C. for an hour. In this case, each of the treated compounds was used at six concentrations, ranging from 0.0032 to 10 μM, to treat the cells.
The cyclic adenosine monophosphate (cAMP) activity was measured according to the manufacturer's instruction using a cAMP dynamic kit commercially available from Cis Bio Inc. (Bedford, Mass.). The cells were lysed, and a level of cAMP was determined by a competitive immunoassay using D2-labeled cAMP and a cryptate-labeled anti-cAMP antibody. Fluorescence was read in Flex Station (Molecular Devices). […] Unlabeled cAMP in the cell lysate competed with the D2-labeled cAMP against the cryptate-labeled antibody. Since a decrease in the measured intensity of the FRET signals represents a level of cAMP in the cells, the cAMP activities of the compounds are calculated as a change in FRET signals by adjusting an amount of dimethyl sulfoxide (DMSO).

[1] = 1 hour at 37° C., six concentrations 0.0032 to 10 μM, read-out: EC50

Compound	EC50 [1] [nM]	EC50 (Table 2, read-out: EC50 value) [nM]
CC(C)(C)OC(=O)N1CCC(COc2ccc(C3=CCC(C(=O)N4CCOCC4)CC3)cc2F)CC1 (single isomer, unassigned; (+)) [Example 442, (+)-tert-butyl 4-((2-fluoro-4-(4-(morpholine-4-carbonyl)cyclohex-1-enyl)phenoxy)methyl)piperidine-1-carboxylate]	8	≤ 50
CCc1cnc(N2CCC(COc3ccc(C4=CCC(C(=O)N5CCC(F)(F)C5)CC4)c(F)c3)CC2)nc1 (single isomer, unassigned; (+)) [Example 462, (+)-(3,3-difluoropyrrolidin-1-yl)(4-(4-((1-(5-ethylpyrimidin-2-yl)piperidin-4-yl)methoxy)-2-fluorophenyl)cyclohex-3-enyl)methanone]	14	≤ 50
CCc1cnc(N2CCC(COc3ccc(C4=CCC(C(=O)N5CC(F)(F)C(F)(F)C5)CC4)c(F)c3)CC2)nc1 (single isomer, unassigned; (+)) [Example 464, (+)-(4-(4-((1-(5-ethylpyrimidin-2-yl)piperidin-4-yl)methoxy)-2-fluorophenyl)cyclohex-3-enyl)(3,3,4,4-tetrafluoropyrrolidin-1-yl)methanone]	13	≤ 50
CCc1cnc(N2CCC(COc3ccc(C4=CCC(C(=O)N5CCC[C@H]5CO)CC4)cc3)CC2)nc1 (single isomer, unassigned; (+)) [Example 466]	12	≤ 50
CCc1cnc(N2CCC(COc3ccc(C4=CCC(C(=O)N5CCCC5)CC4)cc3F)CC2)nc1 (single isomer, unassigned; (-)) [Example 429, (−)-(4-(4-((1-(5-ethylpyrimidin-2-yl)piperidin-4-yl)methoxy)-3-fluorophenyl)cyclohex-3-enyl)(pyrrolidin-1-yl)methanone]	21	≤ 50
CCc1cnc(N2CCC(COc3ccc(C4=CCC(C(=O)N5CCC(CCO)CC5)CC4)cc3F)CC2)nc1 (single isomer, unassigned; (-)) [Example 430, (−)-(4-(4-((1-(5-ethylpyrimidin-2-yl)piperidin-4-yl)methoxy)-3-fluorophenyl)cyclohex-3-enyl)(4-(2-hydroxyethyl)piperidin-1-yl)methanone]	9	≤ 50
CCc1cnc(N2CCC(COc3ccc(C4=CCC(C(=O)NCCO)CC4)cc3F)CC2)nc1 (single isomer, unassigned; (-)) [Example 441, (−)-4-(4-((1-(5-ethylpyrimidin-2-yl)piperidin-4-yl)methoxy)-3-fluorophenyl)-N-(2-hydroxyethyl)cyclohex-3-enecarboxamide]	33	≤ 50
CC(C)(C)OC(=O)N1CCC(COc2ccc(C3=CCC(C(=O)N4CCOCC4)CC3)cc2F)CC1 (single isomer, unassigned; (-)) [Example 443, (−)-tert-butyl 4-((2-fluoro-4-(4-(morpholine-4-carbonyl)cyclohex-1-enyl)phenoxy)methyl)piperidine-1-carboxylate]	38	
CCc1cnc(N2CCC(COc3ccc(C4=CCC(C(=O)N5CC[C@H](F)C5)CC4)cc3)CC2)nc1 (single isomer, unassigned; (-)) [Example 458]	12	
CCc1cnc(N2CCC(COc3ccc(C4=CCC(C(=O)N5CCC(F)(F)C5)CC4)c(F)c3)CC2)nc1 (single isomer, unassigned; (-)) [Example 461, (−)-(3,3-difluoropyrrolidin-1-yl)(4-(4-((1-(5-ethylpyrimidin-2-yl)piperidin-4-yl)methoxy)-2-fluorophenyl)cyclohex-3-enyl)methanone]	91	
CCc1cnc(N2CCC(COc3ccc(C4=CCC(C(=O)N5CC(F)(F)C(F)(F)C5)CC4)c(F)c3)CC2)nc1 (single isomer, unassigned; (-)) [Example 463, (−)-(4-(4-((1-(5-ethylpyrimidin-2-yl)piperidin-4-yl)methoxy)-2-fluorophenyl)cyclohex-3-enyl)(3,3,4,4-tetrafluoropyrrolidin-1-yl)methanone]	88	
CCc1cnc(N2CCC(COc3ccc(C4=CCC(C(=O)N5CCC[C@H]5CO)CC4)cc3)CC2)nc1 (single isomer, unassigned; (-)) [Example 465]	110	
CC(C)c1noc(N2CCC(COc3ccc(C4=CCC(C(=O)N5CC[C@H](F)C5)CC4)cc3F)CC2)n1 (stereo partly drawn) [Example 95, (4-(3-fluoro-4-((1-(3-isopropyl-1,2,4-oxadiazol-5-yl)piperidin-4-yl)methoxy)phenyl)cyclohex-3-enyl)((S)-3-fluoropyrrolidin-1-yl)methanone]		≤ 50
CCc1cnc(N2CCC(COc3ccc(C4=CCC(C(=O)N5CCN(CCO)CC5)CC4)cc3)CC2)nc1 (centres unmarked) [Example 172, (4-(4-((1-(5-ethylpyrimidin-2-yl)piperidin-4-yl)methoxy)phenyl)cyclohex-3-enyl)(4-(2-hydroxyethyl)piperazin-1-yl)methanone]		≤ 50
CCc1cnc(N2CCC(COc3ccc(C4=CCC(C(=O)N5CCC(CCO)CC5)CC4)cc3)CC2)nc1 (centres unmarked) [Example 173, (4-(4-((1-(5-ethylpyrimidin-2-yl)piperidin-4-yl)methoxy)phenyl)cyclohex-3-enyl)(4-(2-hydroxyethyl)piperidin-1-yl)methanone]		≤ 50
CCc1cnc(N2CCC(COc3ccc(C4=CCC(C(=O)NCC(C)(C)CO)CC4)cc3)CC2)nc1 (centres unmarked) [Example 177, 4-(4-((1-(5-ethylpyrimidin-2-yl)piperidin-4-yl)methoxy)phenyl)-N-(3-hydroxy-2,2-dimethylpropyl)cyclohex-3-enecarboxamide]		≤ 50
CCN1CCN(C(=O)C2CC=C(c3ccc(OCC4CCN(C(=O)OC(C)(C)C)CC4)cc3)CC2)CC1 (centres unmarked) [Example 203, tert-butyl 4-((4-(4-(4-ethylpiperazine-1-carbonyl)cyclohex-1-enyl)phenoxy)methyl)piperidine-1-carboxylate]		≤ 50
CCc1cnc(N2CCC(COc3ccc(C4=CCC(C(=O)N5CC=CC5)CC4)cc3)CC2)nc1 (centres unmarked) [Example 235, (2,5-dihydro-1H-pyrrol-1-yl)(4-(4-((1-(5-ethylpyrimidin-2-yl)piperidin-4-yl)methoxy)phenyl)cyclohex-3-enyl)methanone]		≤ 50
CC(C)(C)OC(=O)N1CCC(COc2ccc(C3=CCC(C(=O)N4CCc5ccccc5C4)CC3)cc2)CC1 (centres unmarked) [Example 239, tert-butyl 4-((4-(4-(1,2,3,4-tetrahydroisoquinoline-2-carbonyl)cyclohex-1-enyl)phenoxy)methyl)piperidine-1-carboxylate]		≤ 50
CC(C)c1noc(N2CCC(COc3ccc(C4=CCC(C(=O)N5CCC(=O)C5)CC4)cc3)CC2)n1 (centres unmarked) [Example 251]	22	≤ 50
CCc1cnc(N2CCC(COc3ccc(C4=CCC(C(=O)N5C/C(=N\OC)C(CO)(CO)C5)CC4)cc3)CC2)nc1 (centres unmarked) [Example 253, (Z)-(3,3-bis(hydroxymethyl)-4-(methoxyimino)pyrrolidin-1-yl)(4-(4-((1-(5-ethylpyrimidin-2-yl)piperidin-4-yl)methoxy)phenyl)cyclohex-3-enyl)methanone]		≤ 50
CC(C)(C)OC(=O)N1CCC(COc2ccc(C3=CCC(C(=O)N4CCN(CC5CC5)CC4)CC3)cc2)CC1 (centres unmarked) [Example 256, tert-butyl 4-((4-(4-(4-(cyclopropylmethyl)piperazine-1-carbonyl)cyclohex-1-enyl)phenoxy)methyl)piperidine-1-carboxylate]		≤ 50
CC(C)(C)OC(=O)N1CCC(COc2ccc(C3=CCC(C(=O)N4CCC(C#N)CC4)CC3)cc2)CC1 (centres unmarked) [Example 262]	7	≤ 50
CC(C)(C)OC(=O)N1CCC(COc2ccc(C3=CCC(C(=O)N4CCC5(C=Cc6ccccc65)CC4)CC3)cc2)CC1 (centres unmarked) [Example 264, tert-butyl 4-((4-(4-(spiro[indene-1,4′-piperidin]-1′-ylcarbonyl)cyclohex-1-enyl)phenoxy)methyl)piperidine-1-carboxylate]		≤ 50
CON=C1CCN(C(=O)C2CC=C(c3ccc(OCC4CCN(C(=O)OC(C)(C)C)CC4)cc3)CC2)CC1 (centres unmarked) [Example 270, tert-butyl 4-((4-(4-(4-(methoxyimino)piperidine-1-carbonyl)cyclohex-1-enyl)phenoxy)methyl)piperidine-1-carboxylate]		≤ 50
CC(C)c1noc(N2CCC(COc3ccc(C4=CCC(C(=O)N5CCC(=NO)CC5)CC4)cc3)CC2)n1 (centres unmarked) [Example 276, (4-(hydroxyimino)piperidin-1-yl)(4-(4-((1-(3-isopropyl-1,2,4-oxadiazol-5-yl)piperidin-4-yl)methoxy)phenyl)cyclohex-3-enyl)methanone]		≤ 50
